Results on 31 compounds are retold here after PubChem BioAssay (NCI).

Some test systems named below: T-47D breast; HOP-18 NSCLC; DMS 273 small cell lung; DLD-1 colon; KM20L2 colon; XF 498 CNS; MDA-N; RXF-631 renal.
Holding throughout (assay): NCI-60 cell line screen, 48 h

Values joined by “and” are separate entries in the source; they are usually repeats but may differ in a detail not shown here. Identical values can stand only once.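 Method: 48-hour compound exposure of cells in 96-well plates, five concentrations, linear interpolation of endpoints. GI50 is the concentration that inhibits growth by half. At the TGI there is no net growth.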

Regarding `O=C(/C=C/c1ccccc1)n1c(-c2ccc(Cl)cc2)nc2ccccc21`, in the assay with T-47D breast, the GI50 is 1.73 µM and the TGI stood at 7.68 µM.
`C=C[C@@]1(O)CCCC2=C(C(=O)OCC)CC[C@]21C`: the TGI in the assay with HOP-18 NSCLC, with DMS 273 small cell lung and in the assay on DLD-1 colon was over 100 µM each time.
For `CCc1cccc(CC)c1NC(=O)C1=C(C)NC(C)=C(C(=O)Nc2c(CC)cccc2CC)C1c1ccc([N+](=O)[O-])cc1`, the TGI in the assay with KM20L2 colon is over 100 µM; with DLD-1 colon it was over 100 µM; with XF 498 CNS, 39.5 µM.
Turning to `Cc1ccc(C)c(C2NC(=O)c3ccccc3N2)c1` (centres undefined), the TGI is over 100 µM in the assay on T-47D breast and 0.319 µM in the assay with MDA-N.
As for `N#C/C(=C1\SC(N=Nc2ccccc2)C(=O)N1c1ccccc1)c1nc2ccccc2[nH]1` (centres undefined), the TGI in the assay on DMS 273 small cell lung was over 100 µM; in the assay with KM20L2 colon, over 100 µM; in the assay with DLD-1 colon, over 100 µM; in the assay with XF 498 CNS, 85 µM.
As for `O=C1C(Cl)C(c2ccccc2O)N1n1cnc2ccccc2c1=O` (centres undefined), the TGI in the assay with HOP-18 NSCLC is over 100 µM; in the assay on DMS 273 small cell lung, over 100 µM; with KM20L2 colon it was over 100 µM; in the assay with DLD-1 colon it was over 100 µM; in the assay with XF 498 CNS, 17.9 µM.
`Cc1sc2c(c1C)C(c1ccc(Cl)cc1)=N[C@@H](CC(=O)OC(C)(C)C)c1nnc(C)n1-2`: in the assay on T-47D breast, the GI50 is 0.342 µM and 0.214 µM; the TGI was 18.8 µM and 19 µM.
In the case of `SCCSCCCSCCS`, the TGI in the assay with T-47D breast and in the assay with MDA-N was over 100 µM throughout.
As to `CN1C(=O)C(=O)c2cc3c(c4c2c1cc1ccccc14)OCO3`, the TGI with HOP-18 NSCLC, in the assay with DMS 273 small cell lung, with KM20L2 colon, in the assay on DLD-1 colon and with XF 498 CNS was over 100 µM throughout.
Turning to `COC(=O)C1[C@H](c2cc(OC)c(OC)c(OC)c2)OC(=O)C1(C(=O)OC)C(=O)c1ccc2c(c1)OCO2` (some centres undefined), the TGI in the assay with DMS 273 small cell lung, with KM20L2 colon, in the assay with DLD-1 colon and in the assay on XF 498 CNS was over 100 µM in each case.
For `CCCC(CCC)C(=O)OCC1(CO)C/C(=C\c2ccc(F)cc2)C(=O)O1` (centres undefined), in the assay with T-47D breast, the GI50 was 13.2 µM and the TGI came to 30.1 µM.
Consider `O=C(O)C(Cl)(c1ccccc1)c1ccccc1`, for which the TGI with T-47D breast and in the assay with MDA-N was over 100 µM throughout.
With `CCCCCCCCCCCCCCCCCC(=O)OCC(COC(=O)CCCN)OC(=O)CCCN` (centres undefined), the results for the TGI with T-47D breast and in the assay with MDA-N were 40 µM and 39.4 µM, respectively.
Consider `CO[C@H](C(=O)[C@@H](O)[C@@H](C)O)[C@@H]1Cc2cc3cc(OC4CC(OC5CC(O)C(O)C(C)O5)C(O)C(C)O4)c(C)c(O)c3c(O)c2C(=O)[C@H]1OC1CC(OC2CC(OC3CC(C)(O)C(O)C(C)O3)C(O)C(C)O2)C(O)C(C)O1` (some centres undefined), for which, in the assay with HOP-18 NSCLC, the GI50 was 0.000558 µM.
Turning to `CCn1c(-c2cc3ccccc3cc2O)nn(C(=O)c2c(Cl)cccc2Cl)c1=S`, in the assay on T-47D breast, the GI50 is 21 µM and the TGI was over 50 µM.
In the case of `COc1cccc(C2c3cc4c(cc3OC(N3CCCC3)C2C)OCO4)c1O` (centres undefined), the TGI was over 94.9 µM with T-47D breast and 4.38 µM in the assay with MDA-N.
With `O=c1c(Cl)c(Cl)c(=O)c2sc3cc(Cl)ccc3[nH]c1=2`, in the assay on T-47D breast, the TGI is over 100 µM.
As for `CC/C(CC(=O)CCC(=O)Nc1ccccc1[N+](=O)[O-])=N/NC(=O)C[n+]1ccccc1`, the TGI in the assay with HOP-18 NSCLC, in the assay on DMS 273 small cell lung, in the assay on KM20L2 colon and with RXF-631 renal was over 100 µM in each case.
Take `OCC(O)c1nc2ccc3[nH]ncc3c2c2c1CCCC2` (centres undefined): in the assay on T-47D breast, the GI50 is 1.6 µM and the TGI is over 50 µM.
On to `C/C=C/CC(C)[C@@H](O)[C@H](NC)C(=O)O` (some centres undefined), for which the TGI in the assay on HOP-18 NSCLC, in the assay with DMS 273 small cell lung, in the assay with KM20L2 colon and in the assay with DLD-1 colon was over 100 µM throughout.
As for `Cn1c(=O)c2nc(-c3ccc(Cl)cc3)oc2n(C)c1=O`, the TGI in the assay on HOP-18 NSCLC, in the assay on DMS 273 small cell lung, in the assay with KM20L2 colon, with DLD-1 colon and in the assay on XF 498 CNS was over 100 µM each time.
Take `CC1=NN(C(=O)c2ccc([N+](=O)[O-])cc2)C(=O)C1N=Nc1ccccc1C(=O)O` (centres undefined): the TGI in the assay with DMS 273 small cell lung and in the assay on DLD-1 colon was over 100 µM each time.
As to `CC(C)(C)CC(C)(C)NCc1cc(C(C)(C)C)cc(CNC(C)(C)CC(C)(C)C)c1O`, in the assay on T-47D breast, the GI50 was 2.09 µM and the TGI is 5.14 µM.
As to `O=[N+]([O-])C1Cc2ccccc2OC1c1ccccc1` (centres undefined), the TGI with HOP-18 NSCLC, with DMS 273 small cell lung, in the assay on KM20L2 colon, in the assay on RXF-631 renal and in the assay with DLD-1 colon was over 100 µM each time.
Take `Cn1c2ccc(Br)cc2c2c3c(c4c5ccccc5[nH]c4c21)C(=O)N(O)C3=O`: in the assay on T-47D breast, the GI50 is 0.109 µM and the TGI is 0.737 µM.
Regarding `Cc1cc(N2CCSCC2)nc(NC2CCCC(Nc3ccnc4cc(Cl)ccc34)C2)n1` (centres undefined), in the assay with T-47D breast, the GI50 was 2.41 µM and the TGI was found to be 5.9 µM.
In the case of `CC(=O)OC1CC2C(C)(C)C(=O)C=C[C@]2(C)C2CCC3(C)C(=CC(=O)C3c3ccoc3)[C@]12C` (some centres undefined), the TGI was determined as 33.8 µM in the assay on HOP-18 NSCLC, 28.2 µM with KM20L2 colon, 31 µM with DLD-1 colon and 42.8 µM with XF 498 CNS.
Take `N#CCN/C=C\C(=O)c1ccc(Cl)cc1`: in the assay with T-47D breast, the GI50 was 33.9 µM and the TGI was over 100 µM.
For `O=c1[nH]c2cc(Cl)ccc2nc1/C(=N\O)C(O)c1ccc([N+](=O)[O-])cc1` (centres undefined), the TGI in the assay with DMS 273 small cell lung, with KM20L2 colon, with DLD-1 colon and in the assay with XF 498 CNS was over 100 µM in each case.
Take `COc1cc(Nc2nc3ccccc3cc2C(=O)Nc2ccc(F)c(F)c2)cc(OC)c1OC`: in the assay with T-47D breast, the GI50 is 1.84 µM and the TGI came out at 6.39 µM.
With `O=c1c2cccc3cccc(c4n1CCN=4)c32`, the TGI in the assay on HOP-18 NSCLC, with DMS 273 small cell lung, with KM20L2 colon, in the assay with DLD-1 colon and in the assay with XF 498 CNS was over 100 µM each time.
